ChEMBL document CHEMBL3414562, “Synthesis of isocryptolepine analogues and their structure-activity relationship studies as antiplasmodial and antiproliferative agents” (Eur J Med Chem, 2015)

Experiments:
[1] = Selectivity index, ratio of IC50 for human MRC5 cells to IC50 for chloroquine-resistant Plasmodium falciparum K1; type: toxicity, cell-based; conditions: read-out: Ratio IC50
[2] = tested on: Plasmodium falciparum; test: microbe, parasite or virus in culture; conditions: SKF58
[3] = tested on: Plasmodium falciparum; test: microbe, parasite or virus in culture; conditions: SRIV35
[4] = Selectivity index, ratio of IC50 for human MRC5 cells to IC50 for chloroquine/mefloquine-resistant Plasmodium falciparum SKF58; type: toxicity, cell-based; conditions: read-out: Ratio IC50
[5] = Selectivity index, ratio of IC50 for human MRC5 cells to IC50 for chloroquine/mefloquine-resistant Plasmodium falciparum SRIV35; type: toxicity, cell-based; conditions: read-out: Ratio IC50
[6] = Selectivity index, ratio of IC50 for human MRC5 cells to IC50 for human HuCCa1 cells; type: functional
[7] = Selectivity index, ratio of IC50 for human MRC5 cells to IC50 for […]; type: toxicity, cell-based; conditions: read-out: Ratio IC50
[8] = Cytotoxicity against human MOLT3 cells by XTT assay; type: functional, cell-based; conditions: MOLT-3
[9] = tested on: HepG2; test: Cytotoxicity against human HepG2 cells by MTT assay; type: functional, cell-based
[10] = tested on: Plasmodium falciparum; test: microbe, parasite or virus in culture; conditions: K1
Description: Antiplasmodial activity against chloroquine-resistant Plasmodium falciparum K1

[11] = tested on: Plasmodium falciparum; test: microbe, parasite or virus in culture; conditions: 3D7
Description: Antiplasmodial activity against chloroquine-sensitive Plasmodium falciparum 3D7

[12] = tested on: MRC5; test: Cytotoxicity against human MRC5 cells by MTT assay; type: cell-based
[13] = tested on: A549; test: Cytotoxicity against human A549 cells by MTT assay; type: functional, cell-based
[14] = Cytotoxicity against human HuCCa1 cells by MTT assay; type: functional, cell-based; conditions: HuCC-A1
[15] = tested on: MRC5; test: Cytotoxicity against human MRC5 cells at 131866 nM by MTT assay relative to control; type: cell-based; conditions: mrc5, 131.866 µM
[16] = tested on: MRC5; test: Cytotoxicity against human MRC5 cells at 144667 nM by MTT assay relative to control; type: cell-based; conditions: mrc5, 144.667 µM
[17] = tested on: MRC5; test: Cytotoxicity against human MRC5 cells at 72014 nM by MTT assay relative to control; type: cell-based; conditions: mrc5, 72.014 µM
[18] = tested on: MRC5; test: Cytotoxicity against human MRC5 cells at […] uM by MTT assay relative to control; type: cell-based; conditions: mrc5, 91.99 µM
[19] = tested on: MRC5; test: Cytotoxicity against human MRC5 cells at 137509 nM by MTT assay relative to control; type: cell-based; conditions: mrc5, 137.509 µM

| Structure (SMILES) | selectivity ratio [1] | IC50 [2] [nM] | IC50 [3] [nM] | selectivity ratio [4] | selectivity ratio [5] | Ratio IC50 [6] | selectivity ratio [7] | IC50 [8] [nM] | IC50 [9] [nM] | IC50 [10] [nM] | IC50 [11] [nM] | IC50 [12] [nM] | IC50 [13] [nM] | IC50 [14] [nM] | Activity [15] [%] | Activity [16] [%] | Activity [17] [%] | Activity [18] [%] | Activity [19] [%] |
| --- | --- | --- | --- | --- | --- | --- | --- | --- | --- | --- | --- | --- | --- | --- | --- | --- | --- | --- | --- |
| Cn1cc2c3ccc4ccccc4c3nc-2c2cc(Cl)ccc21 | 24.1 | 134 | 126 | 34.3 | 36.3 | 2.96 | 33.6 | 1550 | 760 | 190 | 136 | 2620 | 1200 | 1550 | – | – | – | – | – |
| Cc1cc(Br)cc2c3cn(C)c4ccc(Cl)cc4c-3nc12 | 37.8 | 92.6 | 86.7 | 59.2 | 63.2 | 0.89 | 57.7 | 1170 | 1390 | 145 | 95 | 5430 | 2340 | 6150 | – | – | – | – | – |
| Cc1cccc2c3nc4ccccc4c-3cn(C)c12 | 22.2 | 1570 | 1570 | 24.6 | 24.6 | 2.33 | 24.6 | 2920 | 2600 | 1740 | 1570 | 39500 | 11100 | 16600 | – | – | – | – | – |
| Cn1cc2c3cc(F)ccc3nc-2c2cc(Cl)ccc21 | 14.1 | 177 | 176 | 22.8 | 22.9 | 0.43 | 24.4 | 740 | 810 | 288 | 166 | 4040 | 7900 | 9480 | – | – | – | – | – |
| COc1ccc2nc3c4cc(Cl)ccc4n(C)cc-3c2c1 | 7.52 | 207 | 209 | 13.8 | 13.7 | 0.28 | 13.5 | 2900 | 2190 | 380 | 211 | 3100 | 6980 | 10400 | – | – | – | – | – |
| Cn1cc2c3cc(Br)ccc3nc-2c2cc(C(F)(F)F)ccc21 | > 96.4 | 1220 | 929 | > 108 | > 142 | >17.72 | > 228 | 35000 | 75600 | 1370 | 579 | > 132000 | 105000 | 7440 | 35.85 | – | – | – | – |
| Cn1cc2c3ccccc3nc-2c2ccccc21 [ISOCRYPTOLEPINE] | 10.7 | 410 | 463 | 20.4 | 18 | 4.62 | 14.3 | 730 | 730 | – | 585 | 8350 | 1210 | 1810 | – | – | – | – | – |
| Cn1cc2c3cc(Br)ccc3nc-2c2cc(Cl)ccc21 | > 623 | 162 | 171 | > 893 | > 845 | >4.7 | > 796 | 750 | 4830 | 232 | 182 | > 145000 | 7030 | 30800 | – | 40.45 | – | – | – |
| Cn1cc2c3ccccc3nc-2c2cccc(Cl)c21 | – | > 2000 | > 2000 | – | – | 0.59 | – | 1270 | 2620 | > 2000 | > 2000 | 12400 | 8590 | 21000 | – | – | – | – | – |
| Cn1cc2c3cc(Br)ccc3nc-2c2cccc(F)c21 | 51.8 | 243 | 235 | 63 | 65.2 | 3.42 | 86.1 | 1090 | 3220 | 296 | 178 | 15300 | 6170 | 4480 | – | – | – | – | – |
| Cn1cc2c3cc(Br)ccc3nc-2c2cccc(Cl)c21 | – | > 2000 | > 2000 | – | – | 0.64 | – | 780 | 2550 | > 2000 | > 2000 | 3150 | 5500 | 4920 | – | – | – | – | – |
| Cn1cc2c3cc(Br)ccc3nc-2c2ccc(F)c(F)c21 | > 53.2 | 9860 | > 2000 | > 7.3 | – | >1.68 | > 248 | 17400 | – | 1350 | 290 | > 72000 | 25000 | 42700 | – | – | 32.6 | – | – |
| Cn1cc2c3cc(Br)ccc3nc-2c2cc(F)ccc21 | 650 | 132 | 211 | 921 | 577 | 8.14 | 1020 | 880 | 3650 | 188 | 119 | 122000 | 13200 | 15000 | – | – | – | – | – |
| Cn1cc2c3cc(Br)ccc3nc-2c2cc(F)cc(Cl)c21 | – | > 2000 | > 2000 | – | – | 13.5 | – | – | 3470 | > 2000 | > 2000 | 108000 | 35900 | 8000 | – | – | – | – | – |
| COc1cccc2c1C(=O)c1c(O)c3c(c(O)c1C2=O)C[C@@](O)(C(=O)CO)C[C@@H]3O[C@H]1C[C@H](N)[C@H](O)[C@H](C)O1 [DOXORUBICIN] | – | – | – | – | – | – | – | – | 400 | – | – | > 92000 | – | 2390 | – | – | – | 37.13 | – |
| C[C@H]1[C@H](OC(=O)CCC(=O)O)O[C@@H]2O[C@@]3(C)CC[C@H]4[C@H](C)CC[C@@H]1[C@@]24OO3 [ARTESUNATE] | – | 10 | 4.1 | – | – | – | – | – | – | 3.5 | 4.2 | – | – | – | – | – | – | – | – |
| Cn1cc2c3cc(Cl)ccc3nc-2c2cc(Cl)ccc21 | 110 | 130 | 156 | 194 | 162 | 1.9 | 146 | 930 | 7900 | 228 | 172 | 25200 | 30200 | 13200 | – | – | – | – | – |
| OC(c1cc(C(F)(F)F)nc2c(C(F)(F)F)cccc12)C1CCCCN1 (stereo not drawn) [MEFLOQUINE] | – | – | 65 | – | – | – | – | – | – | – | – | – | – | – | – | – | – | – | – |
| COc1cc([C@@H]2c3cc4c(cc3[C@@H](O[C@@H]3O[C@@H]5CO[C@@H](C)O[C@H]5[C@H](O)[C@H]3O)[C@H]3COC(=O)[C@H]23)OCO4)cc(OC)c1O [ETOPOSIDE] | – | – | – | – | – | – | – | 110 | 40500 | – | – | – | – | – | – | – | – | – | – |
| Cn1cc2c3cc(Br)ccc3nc-2c2ccc(F)cc21 | 425 | 92.4 | 83 | 284 | 317 | 2.58 | 693 | 1260 | 7410 | 61.8 | 37.9 | 26300 | 7970 | 10200 | – | – | – | – | – |
| C=C[C@H]1CN2CC[C@H]1C[C@H]2[C@H](O)c1ccnc2ccc(OC)cc12 [QUININE] | – | 199 | 431 | – | – | – | – | – | – | 113 | 80 | – | – | – | – | – | – | – | – |
| Cn1cc2c3cc(Br)ccc3nc-2c2cc(Cl)cc(F)c21 | > 101 | 1400 | 1400 | > 97.9 | > 98.2 | >12.07 | > 181 | 55700 | 8760 | 1360 | 758 | > 138000 | – | 11400 | – | – | – | – | 34 |
| Cn1cc2c3ccccc3nc-2c2cc(Cl)ccc21 | 32.5 | 228 | 217 | 45.7 | 48 | 1.62 | 47.1 | 520 | 640 | 321 | 221 | 10400 | 1500 | 6450 | – | – | – | – | – |
| Cn1cc2c3cc(Br)ccc3nc-2c2cc(OC(F)(F)F)ccc21 | 1280 | 108 | 108 | 799 | 804 | 12.36 | 1500 | 2600 | 8200 | 67.9 | 57.7 | 86600 | 8460 | 7010 | – | – | – | – | – |
